Test [1] deals with T1, PRMT5 (Homo sapiens, UniProt O14744).
T1 construct: purchased Viva (custom protein)
Kind of test: PRMT5 IC50 assay with no cofactor. It counts as biochemical. In outline: (§1)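 Potency against PRMT5 is compared across cofactor states, where IC50 equals Ki×1.5 with SAM present and Ki×13.5 with MTA present.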

Test [2] has as its target T1, PRMT5. Kind of test: PRMT5 IC50 assay in the presence of MTA as cofactor. It counts as biochemical. To be noted: for IC50: PRMT5, MTA as cofactor. The gist of the method:
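MTA-dependent versus SAM-dependent inhibition of human PRMT5 was assessed by IC50; conversion factors of 13.5 and 1.5 gave the corresponding Ki.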

In the next test the test system is HAP1 MTAP-intact. Put plainly: SDMA in-cell western assay, HAP1 MTAP-intact cell line. It is filed as cell-based. To be noted: Homo sapiens. The gist of the method: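 HAP1 isogenic pair: endogenous MTAP vs MTAP-null. Readout SDMA by in-cell western; IC50 per line. Ratio ≥3 fold = MTAP-selective.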
Test [3] has as its target T1, PRMT5. Put plainly: PRMT5 IC50 assay in the presence of SAM as cofactor. It is filed as biochemical. In outline: as §1
The subject of the next test is HAP1 MTAP-deleted. Kind of test: SDMA in-cell western assay, HAP1 MTAP-deleted cell line. It counts as cell-based. To be noted: for IC50: Homo sapiens, HAP1 MTAP-deleted cell line; for MTAP Intact/Deleted Ratio: IC50 ratio HAP1 MTAP-intact / HAP1 MTAP-deleted. The gist of the method:
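IC50 from SDMA in-cell western; HAP1 line lacking MTAP (null), paired isogenically with MTAP-intact HAP1 expressing endogenous MTAP.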

[4] abbreviates: ratio between Ki in the presence of SAM and Ki in the presence of MTA.
Where [5] appears, read: ratio between the Ki in the presence of SAM and the Ki in the presence of MTA.

T1 sequence (O14744 whole entry): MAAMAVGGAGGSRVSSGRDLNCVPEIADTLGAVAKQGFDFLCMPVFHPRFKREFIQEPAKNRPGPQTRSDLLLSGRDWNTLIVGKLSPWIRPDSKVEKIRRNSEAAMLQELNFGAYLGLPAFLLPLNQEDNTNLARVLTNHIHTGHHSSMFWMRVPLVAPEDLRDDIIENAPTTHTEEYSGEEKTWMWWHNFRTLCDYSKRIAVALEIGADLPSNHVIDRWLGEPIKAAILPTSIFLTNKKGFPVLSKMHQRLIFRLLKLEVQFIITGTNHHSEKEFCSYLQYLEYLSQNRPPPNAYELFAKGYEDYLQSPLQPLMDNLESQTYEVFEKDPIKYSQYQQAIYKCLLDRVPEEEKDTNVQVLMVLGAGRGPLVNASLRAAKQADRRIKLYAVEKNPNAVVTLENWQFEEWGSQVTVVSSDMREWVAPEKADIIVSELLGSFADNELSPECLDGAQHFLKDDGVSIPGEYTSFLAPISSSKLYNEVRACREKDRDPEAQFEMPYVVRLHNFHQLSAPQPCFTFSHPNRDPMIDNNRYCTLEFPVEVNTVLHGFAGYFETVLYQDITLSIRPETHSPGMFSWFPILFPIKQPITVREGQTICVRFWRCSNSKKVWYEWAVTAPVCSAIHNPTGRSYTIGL
T1 sequence (Q9BQA1 whole entry partner): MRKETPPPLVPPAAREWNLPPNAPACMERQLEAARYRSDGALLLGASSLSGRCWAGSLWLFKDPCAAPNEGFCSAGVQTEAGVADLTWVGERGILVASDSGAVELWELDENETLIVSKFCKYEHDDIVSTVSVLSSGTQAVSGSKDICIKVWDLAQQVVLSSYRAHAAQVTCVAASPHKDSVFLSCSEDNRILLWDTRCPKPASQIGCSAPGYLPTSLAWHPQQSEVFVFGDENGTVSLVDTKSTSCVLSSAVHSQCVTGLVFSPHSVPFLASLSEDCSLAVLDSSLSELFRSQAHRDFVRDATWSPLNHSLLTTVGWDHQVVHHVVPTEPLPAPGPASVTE

Consider `O=C(NC[C@H](O)CN1CCc2c(ccc(OCc3cnco3)c2Br)C1)c1cccc(NC2CCC2)c1` [Compound 348, (S)—N-(3-(5-bromo-6-(oxazol-5-ylmethoxy)-3,4-dihydroisoquinolin-2(1H)-yl)-2-hydroxypropyl)-3-(cyclobutylamino)benzamide], for which the half-inhibitory concentration (IC50) (as a rule, the point on the concentration scale where inhibition reaches its midpoint) on PRMT5 [1] (read-out: No Co-factor IC50) is no less than 5000 nM; on PRMT5 [2], 500 to 5000 nM; in the test on HAP1 MTAP-intact, no less than 10000 nM; at PRMT5 [3], 500 to 5000 nM; in the test on HAP1 MTAP-deleted it was no less than 10000 nM. Further, the “SAM/MTA Ratio” value at PRMT5 [2] (setting [4]) is “A (a Ki ratio greater than or equal to 10 fold between the Ki in the presence of SAM and the Ki in the presence of MTA)”. Moreover, the “MTAP Intact/Deleted Ratio” value in the test with HAP1 MTAP-deleted was “C* (an IC50 ratio of less than 3 fold between the IC50 in the HAP1 MTAP-intact cell line and the HAP1 MTAP-deleted cell line)”.

Consider `Cc1ncoc1COc1ccc2c(c1)CCN(C[C@@H](O)CNC(=O)c1cc(NC3CCC3)nc(N3CCN(C(=O)C(C)C)CC3)c1)C2` [Compound 463, 2-(cyclobutylamino)-N-[(2S)-2-hydroxy-3-{6-[(4-methyl-1,3-oxazol-5-yl)methoxy]-1,2,3,4-tetrahydroisoquinolin-2-yl}propyl]-6-[4-(2-methylpropanoyl)piperazin-1-yl]pyridine-4-carboxamide], for which the IC50 at PRMT5 [1] is 500 to 5000 nM; on PRMT5 [2], 50 to 500 nM; in the test on HAP1 MTAP-intact, less than 1000 nM; at PRMT5 [3] it was 50 to 500 nM; in the test on HAP1 MTAP-deleted, less than 1000 nM. Further, the “SAM/MTA Ratio” value at PRMT5 [2] (setting [5]) is “A (a Ki ratio greater than or equal to 10 fold between the Ki in the presence of SAM and the Ki in the presence of MTA)”. In the test on HAP1 MTAP-deleted, the “MTAP Intact/Deleted Ratio” value is “B* (an IC50 ratio greater than or equal to 3 fold but lower than 10 fold between the IC50 in the HAP1 MTAP-intact cell line and the HAP1 MTAP-deleted cell line)”.

Regarding `O=C(NC[C@H](O)CN1CCc2c(ccc(OCc3cnco3)c2Cl)C1)c1cc(NC2CCC2)ncc1F` [Compound 340, (S)—N-(3-(5-chloro-6-(oxazol-5-ylmethoxy)-3N-dihydroisoquinolin-2(1H)-yl)-2-hydroxypropyl)-2-(cyclobutylamino)-5-fluoroisonicotinamide], the IC50 is no less than 5000 nM on PRMT5 [1] (read-out: No Co-factor IC50); 50 to 500 nM on PRMT5 [2]; no less than 10000 nM in the test with HAP1 MTAP-intact; 500 to 5000 nM on PRMT5 [3]; no less than 10000 nM in the test with HAP1 MTAP-deleted. Also, the “SAM/MTA Ratio” value on PRMT5 [2] (setting [4]) was “A (a Ki ratio greater than or equal to 10 fold between the Ki in the presence of SAM and the Ki in the presence of MTA)”. The “MTAP Intact/Deleted Ratio” value in the test on HAP1 MTAP-deleted was “C* (an IC50 ratio of less than 3 fold between the IC50 in the HAP1 MTAP-intact cell line and the HAP1 MTAP-deleted cell line)”.

With `O=C(NC[C@H](O)CN1CCc2cc(OCc3cnco3)ccc2C1)c1ccnc(NC2CN(C(=O)C3CC3)C2)c1` [Compound 563, 2-[[1-(cyclopropanecarbonyl)azetidin-3-yl]amino]-N-[(2S)-2-hydroxy-3-[6-(oxazol-5-ylmethoxy)-3,4-dihydro-1H-isoquinolin-2-yl]propyl]pyridine-4-carboxamide], the IC50 against PRMT5 [1] lay within 500 to 5000 nM; at PRMT5 [2] it was 50 to 500 nM; in the test with HAP1 MTAP-intact it was 1000 to 10000 nM; at PRMT5 [3], 50 to 500 nM; in the test on HAP1 MTAP-deleted it was 1000 to 10000 nM. In addition, at PRMT5 [2] (setting [5]), the “SAM/MTA Ratio” value is “A (a Ki ratio greater than or equal to 10 fold between the Ki in the presence of SAM and the Ki in the presence of MTA)”. Also, in the test on HAP1 MTAP-deleted, the “MTAP Intact/Deleted Ratio” value was “C* (an IC50 ratio of less than 3 fold between the IC50 in the HAP1 MTAP-intact cell line and the HAP1 MTAP-deleted cell line)”.

As to `Cc1ncoc1COc1ccc2c(c1Br)CCN(C[C@@H](O)CNC(=O)c1cc(NC3CCC3)ncn1)C2` [Compound 338, (S)—N-(3-(5-bromo-6-((4-methyloxazol-5-yl)methoxy)-3,4-dihydroisoquinolin-2(1H)-yl)-2-hydroxypropyl)-6-(cyclobutylamino)pyrimidine-4-carboxamide], the IC50 on PRMT5 [1] (read-out: No Co-factor IC50) is no less than 5000 nM; on PRMT5 [2] it was 500 to 5000 nM; in the test with HAP1 MTAP-intact it was no less than 10000 nM; on PRMT5 [3] it was 500 to 5000 nM; with HAP1 MTAP-deleted, no less than 10000 nM. The “SAM/MTA Ratio” value at PRMT5 [2] (setting [4]) is “A (a Ki ratio greater than or equal to 10 fold between the Ki in the presence of SAM and the Ki in the presence of MTA)”. For the same molecule, the “MTAP Intact/Deleted Ratio” value in the test with HAP1 MTAP-deleted is “C* (an IC50 ratio of less than 3 fold between the IC50 in the HAP1 MTAP-intact cell line and the HAP1 MTAP-deleted cell line)”.

`Cc1c(OCc2cnco2)ccc2c1CCN(C[C@@H](O)CNC(=O)c1cc(NC3CCCCC3)ncn1)C2` [Compound 436, 6-(cyclohexylamino)-N-[(2S)-2-hydroxy-3-{5-methyl-6-[(1,3-oxazol-5-yl)methoxy]-1,2,3,4-tetrahydroisoquinolin-2-yl}propyl]pyrimidine-4-carboxamide]: the 50% inhibitory concentration (IC50) against PRMT5 [1] is no less than 5000 nM; on PRMT5 [2], 500 to 5000 nM; with HAP1 MTAP-intact it was no less than 10000 nM; on PRMT5 [3], 500 to 5000 nM; with HAP1 MTAP-deleted, no less than 10000 nM. Moreover, the “SAM/MTA Ratio” value at PRMT5 [2] (setting [5]) is “A (a Ki ratio greater than or equal to 10 fold between the Ki in the presence of SAM and the Ki in the presence of MTA)”. The “MTAP Intact/Deleted Ratio” value in the test with HAP1 MTAP-deleted was “C* (an IC50 ratio of less than 3 fold between the IC50 in the HAP1 MTAP-intact cell line and the HAP1 MTAP-deleted cell line)”.

In the case of `CCC(=O)N1CC(Nc2cc(C(=O)NC[C@H](O)CN3CCc4c(ccc(OCc5cnco5)c4C)C3)ccn2)C1` [Compound 495, (S)—N-(2-hydroxy-3-(5-methyl-6-(oxazol-5-ylmethoxy)-3,4-dihydroisoquinolin-2(1H)-yl)propyl)-2-((1-propionylazetidin-3-yl)amino)isonicotinamide], the IC50 against PRMT5 [1] is 500 to 5000 nM; at PRMT5 [2], 50 to 500 nM; in the test on HAP1 MTAP-intact it was no less than 10000 nM; on PRMT5 [3] it was 50 to 500 nM; with HAP1 MTAP-deleted, no less than 10000 nM. Moreover, the “SAM/MTA Ratio” value at PRMT5 [2] (setting [5]) is “A (a Ki ratio greater than or equal to 10 fold between the Ki in the presence of SAM and the Ki in the presence of MTA)”. Also, in the test on HAP1 MTAP-deleted, the “MTAP Intact/Deleted Ratio” value is “C* (an IC50 ratio of less than 3 fold between the IC50 in the HAP1 MTAP-intact cell line and the HAP1 MTAP-deleted cell line)”.

`CC(=O)N1CCN(c2cc(C(=O)NC[C@H](O)CN3CCc4cc(OCc5ocnc5C)ccc4C3)cc(NC3CCC3)n2)CC1` [Compound 556, 2-(4-acetylpiperazin-1-yl)-6-(cyclobutylamino)-N-[(2S)-2-hydroxy-3-{6-[(4-methyl-1,3-oxazol-5-yl)methoxy]-1,2,3,4-tetrahydroisoquinolin-2-yl}propyl]pyridine-4-carboxamide]: the IC50 was 500 to 5000 nM against PRMT5 [1]; 50 to 500 nM on PRMT5 [2]; less than 1000 nM in the test with HAP1 MTAP-intact; 50 to 500 nM at PRMT5 [3]; less than 1000 nM in the test with HAP1 MTAP-deleted. In addition, the “SAM/MTA Ratio” value on PRMT5 [2] (setting [5]) is “A (a Ki ratio greater than or equal to 10 fold between the Ki in the presence of SAM and the Ki in the presence of MTA)”. For the same molecule, in the test with HAP1 MTAP-deleted, the “MTAP Intact/Deleted Ratio” value is “B* (an IC50 ratio greater than or equal to 3 fold but lower than 10 fold between the IC50 in the HAP1 MTAP-intact cell line and the HAP1 MTAP-deleted cell line)”.

With `CCN(C)c1nc(NC2COC2)cc(C(=O)NC[C@H](O)CN2CCc3cc(OCc4cnco4)ccc3C2)n1` [Compound 289], the concentration for half-maximal inhibition (IC50) on PRMT5 [1] (read-out: No Co-factor IC50) lay within 500 to 5000 nM; at PRMT5 [2] it was 50 to 500 nM; in the test on HAP1 MTAP-intact, 1000 to 10000 nM; on PRMT5 [3], 50 to 500 nM; in the test with HAP1 MTAP-deleted it was 1000 to 10000 nM. Moreover, the “SAM/MTA Ratio” value at PRMT5 [2] (setting [4]) is “A (a Ki ratio greater than or equal to 10 fold between the Ki in the presence of SAM and the Ki in the presence of MTA)”. In addition, the “MTAP Intact/Deleted Ratio” value in the test on HAP1 MTAP-deleted was “B* (an IC50 ratio greater than or equal to 3 fold but lower than 10 fold between the IC50 in the HAP1 MTAP-intact cell line and the HAP1 MTAP-deleted cell line)”.

The values above are taken from patent publication US11986471B2, “Compounds and methods of use” (Tango Therapeutics, Inc., priority 2018, dated 2024).
